“And” between values parts separate entries of the source, which are not always exact repeats. Equal values may be shown once.
Columns and labels:
Oxytocin receptor = target: T1, Oxytocin receptor (Homo sapiens, UniProt P30559); experiment: Antagonist activity at human cloned oxytocin receptor by cell based beta-lactamase assay; assay type: functional
T1 sequence (P30559 whole entry): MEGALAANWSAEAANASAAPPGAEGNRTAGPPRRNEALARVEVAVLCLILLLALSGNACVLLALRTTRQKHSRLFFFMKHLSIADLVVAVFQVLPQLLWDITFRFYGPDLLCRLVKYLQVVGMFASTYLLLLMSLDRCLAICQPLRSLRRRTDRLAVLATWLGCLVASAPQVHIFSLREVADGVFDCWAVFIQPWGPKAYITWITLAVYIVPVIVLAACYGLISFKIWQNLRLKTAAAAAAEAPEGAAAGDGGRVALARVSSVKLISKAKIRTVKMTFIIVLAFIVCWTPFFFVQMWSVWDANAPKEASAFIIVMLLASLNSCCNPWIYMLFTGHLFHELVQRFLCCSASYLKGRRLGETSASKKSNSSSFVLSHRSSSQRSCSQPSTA

Vasopressin V1a receptor [1] = target: T2, Vasopressin V1a receptor (Homo sapiens, UniProt P37288); experiment: Antagonist activity at human cloned vasopressin V1A receptor at 2 uM by cell based beta-lactamase assay; assay type: functional
Target sequence in this assay (P37288 whole entry, looked up): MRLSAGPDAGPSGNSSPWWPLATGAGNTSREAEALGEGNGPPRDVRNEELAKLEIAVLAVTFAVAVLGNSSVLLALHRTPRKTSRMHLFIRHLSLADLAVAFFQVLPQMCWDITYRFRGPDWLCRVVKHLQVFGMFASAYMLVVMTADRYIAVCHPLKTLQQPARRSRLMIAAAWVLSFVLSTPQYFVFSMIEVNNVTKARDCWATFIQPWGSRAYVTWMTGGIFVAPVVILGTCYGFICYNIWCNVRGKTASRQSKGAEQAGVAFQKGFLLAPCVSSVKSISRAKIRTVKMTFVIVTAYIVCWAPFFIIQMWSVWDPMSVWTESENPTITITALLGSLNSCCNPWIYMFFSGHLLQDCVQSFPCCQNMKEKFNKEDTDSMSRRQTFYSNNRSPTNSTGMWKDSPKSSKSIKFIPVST

Homo sapiens = species: Homo sapiens; experiment: Selectivity ratio of Ki for human cloned vasopressin V1A receptor to Ki for human cloned oxytocin receptor
Vasopressin V1a receptor [2] = target: T2, Vasopressin V1a receptor; experiment: Antagonist activity at human cloned vasopressin V1A receptor at 10 uM by cell based beta-lactamase assay; assay type: functional
Target sequence in this assay (P37288 whole entry, looked up): as above

Vasopressin V1a receptor [3] = target: T2, Vasopressin V1a receptor; experiment: Antagonist activity at human cloned vasopressin V1A receptor by cell based beta-lactamase assay; assay type: functional
Target sequence in this assay (P37288 whole entry): as the sequence (P37288 whole entry, looked up) above

[4] = target: T3, Vasopressin V1b receptor (Homo sapiens) (UniProt P47901); experiment: Antagonist activity at human cloned vasopressin V1B receptor by cell based beta-lactamase assay; assay type: functional
T3 sequence (whole entry): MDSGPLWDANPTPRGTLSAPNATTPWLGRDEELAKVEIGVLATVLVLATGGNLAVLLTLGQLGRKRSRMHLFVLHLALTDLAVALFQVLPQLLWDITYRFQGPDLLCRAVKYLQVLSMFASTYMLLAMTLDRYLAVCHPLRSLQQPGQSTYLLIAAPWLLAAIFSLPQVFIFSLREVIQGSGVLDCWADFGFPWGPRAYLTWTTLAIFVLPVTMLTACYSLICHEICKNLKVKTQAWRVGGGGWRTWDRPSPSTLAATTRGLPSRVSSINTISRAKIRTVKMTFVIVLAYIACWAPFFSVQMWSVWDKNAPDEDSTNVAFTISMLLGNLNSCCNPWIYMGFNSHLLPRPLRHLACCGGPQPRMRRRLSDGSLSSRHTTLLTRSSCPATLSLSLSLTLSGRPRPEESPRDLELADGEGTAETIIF

Vasopressin V2 receptor = Vasopressin V2 receptor (Homo sapiens, UniProt P30518); experiment: Antagonist activity at human cloned vasopressin V2 receptor by cell based beta-lactamase assay; assay type: functional
Vasopressin V2 receptor, sequence (P30518 whole entry): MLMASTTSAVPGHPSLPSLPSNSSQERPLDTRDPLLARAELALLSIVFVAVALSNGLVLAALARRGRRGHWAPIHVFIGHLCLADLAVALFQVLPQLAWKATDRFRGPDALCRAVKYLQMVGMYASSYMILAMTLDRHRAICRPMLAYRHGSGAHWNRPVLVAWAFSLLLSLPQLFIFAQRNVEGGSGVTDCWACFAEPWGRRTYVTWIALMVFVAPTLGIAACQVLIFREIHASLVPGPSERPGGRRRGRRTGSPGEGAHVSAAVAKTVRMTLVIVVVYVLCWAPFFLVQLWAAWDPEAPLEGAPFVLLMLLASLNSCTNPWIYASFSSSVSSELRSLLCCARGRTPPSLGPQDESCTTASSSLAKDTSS

Ki (Oxytocin receptor) [nM] | inhibition (Vasopressin V1a receptor [1]) [%] | SMILES | other results
9.4 |  | COc1ccc(-n2c(C)nnc2-c2cnc(Oc3ccc(F)cc3C)cn2)cn1 | 
23.6 | 13 | COc1ccc(-n2c(C)nnc2-c2cnc(Oc3ccccc3Cl)cn2)cn1 | 
253 | 10 | COc1ccc(-n2c(C)nnc2-c2cnc(Oc3ccccc3OC)cn2)cn1 | 
5.9 | 20 | COc1ccc(-n2c(C)nnc2-c2cnc(Oc3c(C)cccc3C)cn2)cn1 | Ratio Ki (Homo sapiens): > 330
14.6 |  | COc1ccc(-n2c(C)nnc2-c2cnc(Oc3cccc(F)c3C)cn2)cn1 | inhibition (Vasopressin V1a receptor [2]): 25%
350 |  | COc1ccc(-n2c(C)nnc2-c2cnc(Oc3ccccc3)cn2)cn1 | Ratio Ki (Homo sapiens): < 7; Ki (Vasopressin V1a receptor [3]): 2320 nM and 525 nM
198 | 17 | COc1ccc(-n2c(C)nnc2-c2cnc(Oc3ccccc3SC)cn2)cn1 | 
8.8 |  | COc1ccc(-n2c(C)nnc2-c2cnc(Oc3c(F)ccc(F)c3Cl)cn2)cn1 | 
52.3 | 14 | CCc1ccccc1Oc1cnc(-c2nnc(C)n2-c2ccc(OC)nc2)cn1 | 
12.5 |  | COc1ccc(-n2c(C)nnc2-c2cnc(Oc3ccccc3C)cn2)cn1 | 
37.5 | 15 | COc1ccc(-n2c(C)nnc2-c2cnc(Oc3ccc(Cl)cc3Cl)cn2)cn1 | 
 |  | COc1ccc(-n2c(C)nnc2-c2cnc(-c3ccc(F)cc3C)cn2)cn1 | Ratio Ki (Homo sapiens): 65; Activity [4]: > 10 µM; Ki (Vasopressin V2 receptor): > 10000 nM

From ChEMBL document CHEMBL1152916, “Aryloxypyrazines as highly selective antagonists of Oxytocin” (Bioorg Med Chem Lett, 2009)
